# Results published in ChEMBL document CHEMBL4138065, “Protein-ligand (un)binding kinetics as a new paradigm for drug discovery at the crossroad between experiments and modelling” (Medchemcomm, 2017).
# Biological target: T1, C5a anaphylatoxin chemotactic receptor 1 (Homo sapiens) (UniProt P21730)
# T1 sequence (whole entry): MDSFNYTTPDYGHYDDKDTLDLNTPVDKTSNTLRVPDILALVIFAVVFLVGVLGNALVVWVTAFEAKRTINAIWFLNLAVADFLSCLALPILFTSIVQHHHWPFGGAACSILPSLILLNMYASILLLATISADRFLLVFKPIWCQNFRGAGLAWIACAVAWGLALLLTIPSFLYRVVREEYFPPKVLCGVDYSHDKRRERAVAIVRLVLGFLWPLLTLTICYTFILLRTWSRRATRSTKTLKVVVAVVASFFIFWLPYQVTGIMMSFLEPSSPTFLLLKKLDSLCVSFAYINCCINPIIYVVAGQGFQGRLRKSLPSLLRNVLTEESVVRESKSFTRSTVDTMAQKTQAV
# Experiment: Antagonist activity at of C5aR in human macrophages assessed as half life of residence time for maintaining reduction in C5a-induced macrophage response
# Assay type: functional
row,SMILES,T1/2 [h]
1,CCc1cccc(CC)c1-c1cc(OC(C)C)c2c(n1)CCCC2Nc1ccccc1CCO (stereo not drawn),1 to 3
2,CC(=O)N[C@@H](Cc1ccccc1)C(=O)N[C@H]1CCCNC(=O)[C@H](CCCN=C(N)N)NC(=O)[C@H](Cc2c[nH]c3ccccc23)NC(=O)[C@@H](CC2CCCCC2)NC(=O)[C@@H]2CCCN2C1=O,20
3,COc1ccc2c(c1)C(C(=O)N(Cc1ccc(N(C)C)cc1)c1ccc(C(C)C)cc1)CCC2 (stereo not drawn),1 to 3
